Source: patent US11236080B2, “Protein kinase inhibitors” (Princeton Drug Discovery Inc, priority 2016, dated 2022)

Legend:
[1] = Metabolic stability in human liver microsomes; assay type: in vitro ADME; settings: human liver microsomes 0.5 mg/mL, NADPH and UDPGA, 37° C., read-out: In vitro t1/2
Description: FIG. 1. Metabolic stability of compounds in human liver microsomal incubations. […] Concentrations at specified times were determined by LC-MS/MS.
The incubation reactions at various time points were quenched by adding 2× volumes of acetonitrile containing 100 nM reserpine. The quenched incubation samples were centrifuged at 4000 RPM for 10 min, and the supernatants injected for LC/MS/MS analysis. LC/MS/MS analysis was carried out on a AB Sciex 4000 Q Trap LC/MS/MS system coupled with Shimadzu Prominence UFLCXR 20 series (including a CBM-20A controller, two LC-20ADXR solvent delivery units, SIL-20AC HT autosampler, CTO-20A column oven, and a SPD-20A UV detector).

[2] = Lung tissue and plasma concentration ratios; assay type: in vivo, CD-1 mouse; settings: mice, single oral dose 5 mg/kg, dosed together with dasatinib, all time points
Description: CD-1 mouse (approximate weight 30 g, N=3) were dosed by oral gavage at 10 mL/kg. Blood samples were collected into tubes containing EDTA as the anticoagulant at 1, 2, 4, 10 h post-dosing for Compound X, and predose, 1, 2, 3, 8, 10 and 24 h post-dosing for Compound XI. The plasma samples were prepared by centrifugation. Lung samples were also collected at each of the above time points. The lung samples were homogenated in 4× distilled water (v/w). The plasma samples and the homogenated lung tissue samples were mixed with 3× volumes of acetonitrile containing 100 nM reserpine as the internal standard, and centrifuged at 4000 RPM for 15 min. The supernatants were injected for LC/MS analysis which were carried out on a AB Sciex 4000 Q Trap LC/MS/MS system coupled with Shimadzu Prominence UFLCXR 20 series (including a CBM-20A controller, two LC-20ADXR solvent delivery units, SIL-20AC HT autosampler, CTO-20A column oven, and a SPD-20A UV detector). The samples were separated on a Phenomenex Columbus column (C18, 4 μm, 50×2 mm) eluted with two solvent systems: 2 mM ammonium acetate in water containing 0.1% formic acid (A) and methanol (B) at a linear gradient starting at 25%. Electrospray ionization in positive mode was used to acquire LC/MS/MS data.

| Structure (SMILES) | half-life at 1 μM [1] | ratio of lung tissue concentration to plasma concentration, compared to dasatinib [2] |
| --- | --- | --- |
| [2H]c1cc(C)c(NC(=O)c2cnc(Nc3cc(N4CCCCC4)nc(C)n3)s2)c(Cl)c1 [Compound I, N-(2-chloro-4-deuterio-6-methyl-phenyl)-2-[[2-methyl-6-(1-piperidyl)pyrimidin-4-yl]amino]thiazole-5-carboxamide] | 4.68 h | – |
| Cc1nc(Nc2ncc(C(=O)Nc3c(C)cccc3Cl)s2)cc(N2CC[C@H](O)C2)n1 [Compound X, N-(2-chloro-6-methylphenyl)-2-[[2-methyl-6-((S)-3-hydroxypyrrolidin-1-yl)pyrimidin-4-yl]amino]thiazole-5-carboxamide] | – | significantly lower ratios |
| Cc1nc(Nc2ncc(C(=O)Nc3c(C)cccc3Cl)s2)cc(N2CC[C@@H](O)C2)n1 [Compound XI, N-(2-chloro-6-methylphenyl)-2-[[2-methyl-6-((R)-3-hydroxypyrrolidin-1-yl)pyrimidin-4-yl]amino]thiazole-5-carboxamide] | – | significantly lower ratios |
